From patent US11845744B2, “Methods and compositions for modulating splicing” (Skyhawk Therapeutics, Inc., priority 2019, dated 2023)

What was measured:
[1] = tested on: SMN protein; assay: SMN protein assay (Mesoscale Discovery) in SMA patient fibroblasts (GM03813); type: cell-based, human; conditions: 48 hours, MSD assay, read-out: SMN EC50 (SMN Protein Potency)
Protocol: Compounds were tested on spinal muscular atrophy (SMA) patient fibroblasts (GM03813, Coriell) at doses ranging from 2.5 μM to 0.6 nM. 7000 cells/well were seeded in 96-well plates. Compounds were incubated for 48 hours and the cells were lysed with 100 μL of lysis buffer. 20 μL of lysate was used for SMN protein measurement by Mesoscale Discovery (MSD) assay developed by PharmOptima (Michigan). A standard curve prepared with SMN protein ranging from 1 μg/ml to 19.5 pg/ml was used in each MSD plate to calculate the absolute SMN protein amount in each sample.

[2] = tested on: MDR1-MDCK cell monolayers; assay: MDCK-MDR1 permeability assay for blood-brain-barrier penetration potential (Papp, efflux ratio); type: in vitro ADME; conditions: 5 μM; for MDCK-MDR1: % Recov A-B: apical to basolateral; for MDCK-MDR1: % Recov A-B / MDCK-MDR1: % Recov B-A: 120 minutes, pH 7.4; for MDCK-MDR1: % Recov B-A: basolateral to apical
Protocol: (§1) The dosing solution concentration was 5 μM of test article in the assay buffer. […] Each determination was performed in duplicate. […] All samples were assayed by LC-MS/MS using electrospray ionization. Analytical conditions are outlined below.
(§2) The apparent permeability (Papp) and percent recovery were calculated as follows: […]

[3] = tested on: MDR1; assay: as above; type: in vitro ADME; conditions: dog; for Papp A→B at 120 min, 5 μM: MDCK-MDR1, apical to basolateral; for Papp A→B at 120 min, 5 μM / Papp B→A at 120 min, 5 μM: pH 7.4; for Papp B→A at 120 min, 5 μM: MDCK-MDR1, basolateral to apical; for efflux ratio at 120 min, 5 μM: MDCK-MDR1, pH 7.4, Efflux ratio = Papp (B-to-A)/Papp (A-to-B)
Protocol: as §1, §2

[4] = tested on: SMN; assay: Quantitative splicing assay (SMN) in SMA patient fibroblasts (GM03813), qPCR of SMN FL and SMN Δ7; type: cell-based; conditions: Homo sapiens, Fibroblast, 24 h, SMN FL mRNA by qPCR
Protocol: Spinal muscular atrophy (SMA) patient fibroblasts (GM03813, Coriell) were plated in 96-well plates at 50,000 cells/well. Immediately after plating, cells were dosed with compounds for 24 h at concentrations ranging from 2.5 μM to 0.6 nM (0.1% DMSO). Treated cells were lysed and cDNA synthesized using the Fast Advanced Cells-to-Ct kit (ThermoFisher A35378) according to the manufacturer's instructions. 2 μL of each cDNA were used in qPCR reactions. The qPCR reactions were prepared in 384-well plates in 10 μL volume, using TaqMan™ Fast Advanced Master Mix (ThermoFisher; 4444965) with primers and probes shown in the table below. Reactions were run in a Quant Studio 6 qPCR instrument with default settings.

| Structure (SMILES) | EC50 [1] [nM] | MDCK-MDR1: % Recov A-B [2] [%] | MDCK-MDR1: % Recov B-A [2] [%] | Papp A→B at 120 min, 5 μM [3] [×10⁻⁶ cm/s] | Papp B→A at 120 min, 5 μM [3] [×10⁻⁶ cm/s] | efflux ratio at 120 min, 5 μM [3] | EC50 [4] [nM] | MDCK-MDR1: Efflux ([2]; Efflux ratio = Papp (B-to-A)/Papp (A-to-B)) |
| --- | --- | --- | --- | --- | --- | --- | --- | --- |
| CN(c1cnc(-c2ccc(-c3ccn(C)c(=O)c3)cc2O)nn1)[C@@H]1C[C@H]2CC[C@H](N2)[C@@H]1F (single isomer, unassigned) [Compound 1A] | 500 to 10000 | 81 | 94 | 0.12 | 37.8 | 309 | – | – |
| CN(c1cnc(-c2ccc(-c3ccn(C)c(=O)c3)cc2O)nn1)[C@H]1C[C@@H]2CC[C@@H](N2)[C@H]1F (single isomer, unassigned) [Compound 1B] | 500 to 10000 | 95 | 84 | 0.3 | 46.4 | 152 | – | – |
| CN(c1cnc(-c2ccc(-c3cn[nH]c3)cc2O)nn1)[C@@H]1C[C@H]2CC[C@H](N2)[C@@H]1F (single isomer, unassigned) [Compound 2A] | 500 to 10000 | 78 | 74 | 2.05 | 39.8 | 19 | – | – |
| CN(c1cnc(-c2ccc(-c3cn[nH]c3)cc2O)nn1)[C@H]1C[C@@H]2CC[C@@H](N2)[C@H]1F (single isomer, unassigned) [Compound 2B] | 0.01 to 15 | 93 | 96 | 2.26 | 53.4 | 24 | 0.01 to 15 | – |
| CN(c1cnc(-c2ccc(-c3cnn(C)c3)cc2O)nn1)[C@@H]1C[C@H]2CC[C@H](N2)[C@@H]1F (single isomer, unassigned) [Compound 3A] | 15 to 50 | 67 | 72 | 5.37 | 37.3 | 7 | 0.01 to 15 | – |
| CN(c1cnc(-c2ccc(-c3cnn(C)c3)cc2O)nn1)[C@H]1C[C@@H]2CC[C@@H](N2)[C@H]1F (single isomer, unassigned) [Compound 3B] | 0.01 to 15 | 62 | 76 | 4.3 | 37.8 | 9 | 0.01 to 15 | – |
| CN(C)C(=O)c1cc2cc(O)c(-c3ncc(N(C)[C@@H]4C[C@H]5CC[C@H](N5)[C@@H]4F)nn3)cc2o1 (single isomer, unassigned) [Compound 4A] | – | 89 | 96 | – | – | – | – | 26 |
| CN(C)C(=O)c1cc2cc(O)c(-c3ncc(N(C)[C@H]4C[C@@H]5CC[C@@H](N5)[C@H]4F)nn3)cc2o1 (single isomer, unassigned) [Compound 4B] | – | 91 | 101 | 3.05 | 50 | 16 | – | – |
| Cn1cc(-c2ccc(-c3ncc(O[C@@H]4C[C@H]5CCC[C@H](N5)[C@@H]4F)nn3)c(O)c2)cn1 (single isomer, unassigned) [Compound 5A] | 500 to 10000 | 69 | 79 | 9 | 30.9 | 3 | – | – |
| Cn1cc(-c2ccc(-c3ncc(O[C@H]4C[C@@H]5CCC[C@@H](N5)[C@H]4F)nn3)c(O)c2)cn1 (single isomer, unassigned) [Compound 5B] | 100 to 500 | 83 | 90 | 10.2 | 43.7 | 4 | – | – |
